Results on 13 compounds are retold here after US6569878B1, “Substituted 4-amino-thiazol-2-yl compounds as cyclin-dependent kinase inhibitors” (Agouron Pharmaceuticals Inc., priority 1997, dated 2003).

pIC50, pKi: −log10 of the molar value.

In experiment [1] the target is T1, complex of human CDK4 and cyclin D3 (Homo sapiens, UniProt P11802).
T1 construct: made in house; host or cells: insect cells, co-infected with baculovirus
Nature of the experiment: Inhibition of CDK4/cyclin D retinoblastoma kinase activity (D-type cyclin is D3). The class given is biochemical. To be noted: superscript a: D-type cyclin is D3; apparent Ki; read-out: Ki CDK 4/D. An outline of the steps: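 Apparent Ki derived by fitting background-corrected activity to competitive (or, for tight binders, competitive tight-binding) equations with measured ATP Km. Rb phosphorylation by radiolabelled ATP was measured at 30°C, 20 min standard or 60 min at 5 nM complex for tight binders, via nitrocellulose capture and phosphorimager.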

The target in experiment [2] is T2, CDK2/cyclin A (Homo sapiens, UniProt P24941).
T2 construct: made in house; host or cells: CDK2: insect cells (baculovirus); cyclin A: E. coli, then limited proteolysis
Nature of the experiment: Inhibition of CDK2/cyclin A retinoblastoma kinase activity. The class given is biochemical. To be noted: read-out: Ki CDK 2/A. As to the method:
Cyclin-dependent kinase activity was measured by quantifying the enzyme-catalyzed, time-dependent incorporation of radioactive phosphate from [^32P]ATP or [^33P]ATP into a protein substrate. Unless noted otherwise, assays were performed in 96-well plates in a total volume of 50 μL, in the presence of 10 mM HEPES (N-[2-hydroxyethyl]piperazine-N′-[2-ethanesulfonic acid]) (pH 7.4), 10 mM MgCl2, 25 μM adenosine triphosphate (ATP), 1 mg/mL ovalbumin, 5 μg/mL leupeptin, 1 mM dithiothreitol, 10 mM β-glycerophosphate, 0.1 mM sodium vanadate, 1 mM sodium fluoride, 2.5 mM ethylene glycol-bis(β-aminoethyl ether)-N,N,N′N′-tetraacetic acid (EGTA), 2% (v/v) dimethylsulfoxide, and 0.03-0.4 μCi [^32/33P]ATP per reaction. Reactions were initiated with enzyme, incubated at 30° C., and terminated after 20 minutes by the addition of ethylenediaminetetraacetic acid (EDTA) to 250 mM. The phosphorylated substrate was then captured on a nitrocellulose or phosphocellulose membrane using a 96-well filtration manifold, and unincorporated radioactivity was removed by repeated washing with 0.85% phosphoric acid. Radioactivity was quantified by exposing the dried membranes to a phosphorimager.
Apparent Ki values were measured by assaying enzyme activity in the presence of different inhibitor compound concentrations and subtracting the background radioactivity measured in the absence of enzyme. The kinetic parameters (kcat, Km for ATP) were measured for each enzyme under the usual assay conditions by determining the dependence of initial rates on ATP concentration. Inhibition data were fit to an equation for competitive inhibition using Kaleidagraph (Synergy Software), or were fit to an equation for competitive tight-binding inhibition using the software KineTic (BioKin, Ltd.).
CDK2 was purified using published methodology (Rosenblatt et al., “Purification and Crystallization of Human Cyclin-dependent Kinase 2,” J. Mol. Biol., vol. 230, 1993, pp. 1317-1319) from insect cells that had been infected with a baculovirus expression vector. […] Purified, proteolyzed cyclin A was included in the assay at a three- to five-fold molar excess to CDK2. Alternatively, a complex of CDK2 and proteolyzed cyclin A was prepared and purified by gel filtration. The substrate for this assay was the same Rb substrate fragment used for the CDK4 assays, and the methodology of the CDK2/cyclin A and the CDK4/cyclin D3 assays was essentially the same, except that CDK2 was present at 150 nM or 5 nM. Ki values were measured as described above.

In experiment [3] the test system is HCT116. Kind of experiment: Inhibition of cell growth, MTT assay, HCT116. The class given is cell-based, human. As to conditions: for pIC50 / IC90: Homo sapiens, HCT-116; for % inhibition of growth in parentheses after >25: concentration not given. The procedure:
(§1) The water-insoluble purple formazan product was then detected spectrophotometrically. […] Plates were incubated for four hours before addition of inhibitor compounds. Different concentrations of inhibitor compounds were added in 0.5% (v/v) dimethylsulfoxide (15 μL/well), and cells were incubated at 37° C. (5% CO2) for four to six days (depending on cell type). At the end of the incubation, MTT was added to a final concentration of 0.2 mg/mL, and cells were incubated for 4 hours more at 37° C. After centrifugation of the plates and removal of medium, the absorbance of the formazan (solubilized in dimethylsulfoxide) was measured at 540 nm.

Experiment [4] concerns U2-OS. Kind of experiment: Inhibition of cell growth, MTT assay, U2-OS. The class given is cell-based. To be noted: for pIC50 / IC90: Homo sapiens, U2OS; for % inhibition of growth in parentheses after >25: concentration not given. As to the method: as §1
(Tetrazolium assays rely on reduction of a dye to a coloured formazan, in cell work by metabolically active cells.)

The subject of experiment [5] is Saos-2. Nature of the experiment: Inhibition of cell growth, MTT assay, Saos-2. The class given is cell-based. To be noted: Saos-2, MTT assay; for pIC50 / IC90: Homo sapiens; for % inhibition of growth in parentheses after >25: concentration not given. The procedure:
as §1

T1 sequence (P11802 whole entry): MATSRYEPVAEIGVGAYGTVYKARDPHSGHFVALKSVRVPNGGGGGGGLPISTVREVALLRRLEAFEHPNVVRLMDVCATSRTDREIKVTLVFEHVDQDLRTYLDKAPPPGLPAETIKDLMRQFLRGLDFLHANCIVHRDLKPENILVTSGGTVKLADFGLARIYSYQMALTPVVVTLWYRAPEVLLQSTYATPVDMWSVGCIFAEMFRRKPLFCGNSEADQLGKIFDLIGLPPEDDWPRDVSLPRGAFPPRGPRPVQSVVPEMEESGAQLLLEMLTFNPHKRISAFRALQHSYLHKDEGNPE
T1 sequence (P30281 whole entry partner): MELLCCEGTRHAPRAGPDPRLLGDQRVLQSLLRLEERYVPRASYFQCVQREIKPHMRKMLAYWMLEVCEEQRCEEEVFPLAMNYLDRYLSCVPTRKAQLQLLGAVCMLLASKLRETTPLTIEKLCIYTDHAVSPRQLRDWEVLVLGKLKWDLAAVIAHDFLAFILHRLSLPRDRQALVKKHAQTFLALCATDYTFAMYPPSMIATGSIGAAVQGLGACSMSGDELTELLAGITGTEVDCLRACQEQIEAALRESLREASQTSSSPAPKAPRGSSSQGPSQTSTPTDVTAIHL

Consider `Cc1ccc(C(=O)c2sc(Nc3cccnc3)nc2N)c(C)c1` [C(21), [4-Amino-2-(pyridin-3-ylamino)-thiazol-5-yl]-(2,4-dimethyl-phenyl)-methanone], for which the pKi was 6.93 in experiment [1] and 6.32 in experiment [2]. The pIC50 was 5.05 in experiment [3], 4.66 in experiment [4] and 4.89 in experiment [5]. Moreover, the IC90 in experiment [3] is 22 µM; in experiment [4] it was greater than 25 µM; in experiment [5], 23 µM. Further, the “% inhibition of growth in parentheses after >25” value (“% inhibition of growth” for short) in experiment [4] was found to be 57%.
Take `Cc1ccc(C(=O)c2sc(Nc3ccc(S(N)(=O)=O)cc3)nc2N)c(C)c1` [C(35), 4-[4-Amino-5-(2,4-dimethyl-benzoyl)-thiazol-2-ylamino]-benzenesulfonamide]: the results for the pKi in experiment [1] and in experiment [2] were 7.96 and 7.64, respectively. Besides, the pIC50 in experiment [3] was 5.05; in experiment [4], 4.92; in experiment [5], 5.10. In addition, the 90% effect concentration (IC90) turned out to be 19 µM in experiment [3], 22 µM in experiment [4] and 20 µM in experiment [5].
With `Nc1nc(Nc2ccc(S(N)(=O)=O)cc2)sc1C(=O)c1c(Cl)cc(C(F)(F)F)cc1Cl` [C(38), 4-[4-Amino-5-(2,6-dichloro-4-trifluoromethyl-benzoyl)-thiazol-2-ylamino]-benzenesulfonamide], the figures for the pKi in experiment [1] and in experiment [2] were 7.60 and 7.41, respectively. The pIC50 in experiment [3] was 5.37; in experiment [4], 4.96; in experiment [5], 5.52. In addition, the IC90 in experiment [3] was 19 µM; in experiment [4], greater than 25 µM; in experiment [5], greater than 25 µM. The “% inhibition of growth” value in experiment [4] turned out to be 87%; in experiment [5] it was 80%.
For `Cc1ncsc1C(=O)c1sc(Nc2ccc(S(N)(=O)=O)cc2)nc1N` [C(47), 4-[4-Amino-5-(4-methyl-thiazole-5-carbonyl)-thiazol-2-ylamino]-benzenesulfonamide], the pKi in experiment [1] was 7.52; in experiment [2] it was 7.59. Also, the negative logarithm of the IC50 (pIC50) in experiment [3] is 5.38; in experiment [4] it was 5.00; in experiment [5], 5.60. Also, the figures for the concentration for an effect of 90% (IC90) in experiment [3], in experiment [4] and in experiment [5] were 7.8 µM, 20 µM and 5.1 µM, respectively.
For `Nc1nc(Nc2ccc3nc[nH]c3c2)sc1C(=O)c1c(Cl)cccc1Cl` [C(52), [4-Amino-2-(1H-benzoimidazol-6-ylamino)-thiazol-5-yl]-(2,6-dichloro-phenyl)-methanone], the pKi in experiment [1] was 7.96; in experiment [2] it was 6.98. For the same compound, the values for the pIC50 in experiment [3], in experiment [4] and in experiment [5] were 5.07, 4.82 and 5.05, respectively. Besides, the IC90 in experiment [3] is 17 µM; in experiment [4], 23 µM; in experiment [5] it was 22 µM.
As to `Nc1nc(Nc2ccc(N3CCOCC3)cc2)sc1C(=O)c1c(Cl)cncc1Cl` [C(69), {4-Amino-2-[4-morpholin-4-yl-phenylamino]-thiazol-5-yl}-(3,5-dichloro-pyridin-4-yl)-methanone], the pKi in experiment [1] is 7.70; in experiment [2] it was 6.20. Moreover, the pIC50 was 5.30 in experiment [3], 4.85 in experiment [4] and 4.92 in experiment [5]. Further, the IC90 is 15 µM in experiment [3], no less than 26 µM in experiment [4] and no less than 26 µM in experiment [5].
Regarding `CC(=O)Nc1ccc(Cl)c(C(=O)c2sc(Nc3ccc4nc[nH]c4c3)nc2N)c1Cl` [C(82), N-{3-[4-Amino-2-(1H-benzoimidazol-6-ylamino)-thiazole-5-carbonyl]-2,4-dichloro-phenyl}-acetamide], the pKi was 7.35 in experiment [1] and 6.33 in experiment [2]. In addition, the pIC50 in experiment [3], in experiment [4] and in experiment [5] was less than 4.60 in each case. Further, the figures for the “% inhibition of growth” value in experiment [3], in experiment [4] and in experiment [5] were 1%, 1% and 15%, respectively.
With `Nc1nc(Nc2ccc(C(=O)C3COC(=O)[C@H]3N)cc2)sc1C(=O)c1c(Cl)cncc1Cl` (stereo partly drawn) [C(88), trans-3RS-Amino-4RS-{4-[4-amino-5-(3,5-dichloropyridine-4-carbonyl)-thiazol-2-ylamino]-benzoyl}-dihydro-furan-2-one], the pKi in experiment [1] is 7.19; in experiment [2], 6.52. For the same compound, the pIC50 in experiment [3] was 4.72; in experiment [4], less than 4.60; in experiment [5], 4.66. The 90% effect concentration (IC90) in experiment [3] and in experiment [5] was greater than 25 µM in each case. Also, the “% inhibition of growth” value is on record as 70% in experiment [3], 26% in experiment [4] and “(56%)” in experiment [5].
Consider `Nc1nc(Nc2ccc3nc[nH]c3c2)sc1C(=O)c1c(Cl)cc(Br)c(N)c1Cl` [C(91), [4-Amino-2-(1H-benzoimidazol-6-ylamino)-thiazol-5-yl]-(3-amino-4-bromo-2,6-dichloro-phenyl)-methanone], for which the results for the pKi in experiment [1] and in experiment [2] were 8.17 and 7.09, respectively. Moreover, the negative-log IC50 (pIC50) in experiment [3] is 5.33; in experiment [4], 4.72; in experiment [5], 5.23. Further, the IC90 was 18 µM in experiment [3], greater than 25 µM in experiment [4] and 23 µM in experiment [5].
As for `CC(=O)N1CCN(c2ccc(Nc3nc(N)c(C(=O)c4c(Cl)cccc4Cl)s3)cc2)CC1` [C(97), 2-[4-(1-Acetyl-piperazin-4-yl)-phenylamino]-4-amino-thiazol-5-yl-(2,6-dichlorophenyl)-methanone], the figures for the pKi in experiment [1] and in experiment [2] were 8.07 and 6.41, respectively. Moreover, the negative-log IC50 (pIC50) is 5.41 in experiment [3], 5.00 in experiment [4] and 5.05 in experiment [5]. Besides, the IC90 in experiment [3] was 11 µM; in experiment [4] it was 21 µM; in experiment [5] it was 20 µM.
As to `Nc1nc(Nc2ccc(S(N)(=O)=O)cc2)sc1C(=O)c1c(Cl)cc(Cl)cc1Cl` [C(107), 4-[4-Amino-5-(2,4,6-trichloro-benzoyl)-thiazol-2-yl-amino]-benzenesulfonamide], the results for the pKi in experiment [1] and in experiment [2] were 7.86 and 7.90, respectively. Also, the negative-log IC50 (pIC50) in experiment [3] is 5.60; in experiment [4] it was 5.10; in experiment [5], 5.24. Also, the results for the 90% effect concentration (IC90) in experiment [3], in experiment [4] and in experiment [5] were 7 µM, 12 µM and 12 µM, respectively.
For `CC(=O)N1CCN(c2ccc(Nc3nc(N)c(C(=O)c4c(F)cccc4F)s3)cc2)CC1` [C(111), 2-[4-(1-Acetyl-piperazin-4-yl)-phenylamino]-4-amino-thiazol-5-yl-(2,6-difluorophenyl)-methanone], the pKi is 7.68 in experiment [1] and 6.67 in experiment [2]. The negative-log IC50 (pIC50) in experiment [3] was 5.77; in experiment [4], 5.52; in experiment [5] it was 5.42. Further, the IC90 was determined as 3.8 µM in experiment [3], 5.5 µM in experiment [4] and 5.9 µM in experiment [5].
Turning to `NC(=O)c1ccc(Nc2nc(N)c(C(=O)c3c(F)cccc3C(F)(F)F)s2)cc1` [C(113), 4-[4-Amino-5-(2-fluoro-6-trifluoromethyl-benzoyl)-thiazol-2-ylamino]-benzamide], the pKi in experiment [1] is 7.76; in experiment [2] it was 6.62. The values for the pIC50 in experiment [3], in experiment [4] and in experiment [5] were 5.42, 5.10 and 5.55, respectively. The values for the IC90 in experiment [3], in experiment [4] and in experiment [5] were 8 µM, 19 µM and 9 µM, respectively.

The pIC50 is −log10 of the IC50, conventionally taken in molar units. Higher therefore signals a low IC50. The term IC90 denotes the concentration at which the effect reaches the 90% level. The low end stands for an effect from little substance, the high end for a need for much substance.
